Experimental data: patent US9926301B2, “Bipyrazole derivatives as JAK inhibitors” (Incyte Corporation, priority 2013, dated 2018)
Counter-ions that a name gives are not always drawn.

Assays:
Assay type in all cases: biochemical
[1] = tested on: human JAK1 (a.a. 837-1142) catalytic domain; assay: In vitro JAK kinase assay (HTRF), JAK1; details: ratio of IC50 values at 1 mM ATP
Procedure: (§1) The catalytic activity of JAK1, JAK2 or JAK3 was assayed by measuring the phosphorylation of a biotinylated peptide. The phosphorylated peptide was detected by homogenous time resolved fluorescence (HTRF). […] Reactions were carried out at room temperature for 1 hour and then stopped with 20 μL 45 mM EDTA, 300 nM SA-APC, 6 nM Eu-Py20 in assay buffer (Perkin Elmer, Boston, Mass.). Binding to the Europium labeled antibody took place for 40 minutes and HTRF signal was measured on a Fusion plate reader (Perkin Elmer, Boston, Mass.).

[2] = target: human JAK1 (a.a. 837-1142) catalytic domain (Homo sapiens, UniProt P23458); assay: In vitro JAK kinase assay (HTRF), JAK1; details: JAK enzyme assay at 1 mM ATP
Procedure: as §1

[3] = target: human JAK2 (a.a. 828-1132) catalytic domain (Homo sapiens (Human), UniProt O60674); assay: In vitro JAK kinase assay (HTRF), JAK2; details: JAK enzyme assay at 1 mM ATP
Procedure: as §1

human JAK2 (a.a. 828-1132) catalytic domain, sequence (O60674 828-1132): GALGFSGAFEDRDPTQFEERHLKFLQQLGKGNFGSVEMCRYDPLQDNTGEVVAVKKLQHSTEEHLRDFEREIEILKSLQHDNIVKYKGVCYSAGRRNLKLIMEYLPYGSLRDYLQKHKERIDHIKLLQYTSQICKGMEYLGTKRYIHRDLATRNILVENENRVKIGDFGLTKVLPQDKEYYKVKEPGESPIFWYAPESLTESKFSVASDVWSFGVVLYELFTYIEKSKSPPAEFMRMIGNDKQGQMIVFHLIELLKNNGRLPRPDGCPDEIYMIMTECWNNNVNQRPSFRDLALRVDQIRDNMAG

Row | JAK2/JAK1 [1] | IC50 [2] | IC50 [3] | Structure (SMILES)
1 | >10 | < 300 nM | > 700 nM | Cc1[nH]ncc1-c1cnn(C2(CC#N)CN(c3cnc(C(=O)N[C@@H](C)C(F)(F)F)cn3)C2)c1 [Example 1, 5-[3-(Cyanomethyl)-3-(3′-methyl-1H,1′H-4,4′-bipyrazol-1-yl)azetidin-1-yl]-N-[(1S)-2,2,2-trifluoro-1-methylethyl]pyrazine-2-carboxamide trifluoroacetate]
2 | >10 | < 300 nM | 300 to 1000 nM | Cc1n[nH]cc1-c1cnn(C2(CC#N)CN(c3cnc(C(=O)NC(C)C)cn3)C2)c1 [Example 2, 5-[3-(Cyanomethyl)-3-(3′-methyl-1H,1′H-4,4′-bipyrazol-1-yl)azetidin-1-yl]-N-isopropylpyrazine-2-carboxamide trifluoroacetate]
3 |  | < 300 nM |  | Cc1n[nH]cc1-c1cnn(C2(CC#N)CN(c3cc(F)c(C(=O)N[C@@H](C)C(F)(F)F)cc3F)C2)c1 [Example 4, 4-[3-(Cyanomethyl)-3-(3′-methyl-1H,1′H-4,4′-bipyrazol-1-yl)azetidin-1-yl]-2,5-difluoro-N-[(1S)-2,2,2-trifluoro-1-methylethyl]benzamide trifluoroacetate]
4 | >10 | 300 to 1000 nM | > 1000 nM | C[C@H](NC(=O)c1cc(F)c(N2CC(CC#N)(n3cc(-c4cn[nH]c4)cn3)C2)cc1F)C(F)(F)F [Example 5, 4-[3-(1H,1′H-4,4′-Bipyrazol-1-yl)-3-(cyanomethyl)azetidin-1-yl]-2,5-difluoro-N-[(1S)-2,2,2-trifluoro-1-methylethyl]benzamide trifluoroacetate]
5 | >10 | < 300 nM | > 1000 nM | Cc1n[nH]cc1-c1cn(C2(CC#N)CN(c3cnc(C(=O)NC(C)C)cn3)C2)nc1C [Example 6, 5-[3-(Cyanomethyl)-3-(3,3′-dimethyl-1H,1′H-4,4′-bipyrazol-1-yl)azetidin-1-yl]-N-isopropylpyrazine-2-carboxamide trifluoroacetate]
6 |  | < 300 nM |  | Cc1n[nH]c(C)c1-c1cnn(C2(CC#N)CN(c3cnc(C(=O)NC(C)C)cn3)C2)c1 [Example 8, 5-[3-(Cyanomethyl)-3-(3′,5′-dimethyl-1H,1′H-4,4′-bipyrazol-1-yl)azetidin-1-yl]-N-isopropylpyrazine-2-carboxamide]
7 |  | 300 to 1000 nM | > 1000 nM | Cc1nn(C2(CC#N)CN(c3cnc(C(=O)NC(C)C)cn3)C2)cc1-c1cn[nH]c1 [Example 10, 5-[3-(Cyanomethyl)-3-(3-methyl-1H,1′H-4,4′-bipyrazol-1-yl)azetidin-1-yl]-N-isopropylpyrazine-2-carboxamide trifluoroacetate]
8 | >10 | < 300 nM | > 1000 nM | Cc1n[nH]cc1-c1cn(C2(CC#N)CN(c3cc(F)c(C(=O)N[C@@H](C)C(F)(F)F)cc3F)C2)nc1CO [Example 13, 4-{3-(Cyanomethyl)-3-[3-(hydroxymethyl)-3′-methyl-1H,1′H-4,4′-bipyrazol-1-yl]azetidin-1-yl}-2,5-difluoro-N-[(1S)-2,2,2-trifluoro-1-methylethyl]benzamide]

Row | Structure (SMILES) | JAK2/JAK1 [1] | IC50 [2] | IC50 [3]
9 | Cc1n[nH]cc1-c1cnn(C2(CC#N)CN(c3ccc(C(=O)NC(C)C)cc3)C2)c1 [Example 3, 4-[3-(Cyanomethyl)-3-(3′-methyl-1H,1′H-4,4′-bipyrazol-1-yl)azetidin-1-yl]-N-isopropylbenzamide trifluoroacetate] | >10 | < 300 nM | > 1000 nM
10 | Cc1n[nH]c(C)c1-c1cnn(C2(CC#N)CN(c3cnc(C(=O)N[C@@H](C)C(F)(F)F)cn3)C2)c1 [Example 9, 5-[3-(Cyanomethyl)-3-(3′,5′-dimethyl-1H,1′H-4,4′-bipyrazol-1-yl)azetidin-1-yl]-N-[(1S)-2,2,2-trifluoro-1-methylethyl]pyrazine-2-carboxamide trifluoroacetate] | >10 | < 300 nM | 300 to 1000 nM
11 | CCc1n[nH]cc1-c1cnn(C2(CC#N)CN(c3cnc(C(=O)N[C@@H](C)C(F)(F)F)cn3)C2)c1 [Example 11, 5-[3-(Cyanomethyl)-3-(3′-ethyl-1H,1′H-4,4′-bipyrazol-1-yl)azetidin-1-yl]-N-[(1S)-2,2,2-trifluoro-1-methylethyl]pyrazine-2-carboxamide trifluoroacetate] |  | 300 to 1000 nM | > 1000 nM
12 | C[C@H](NC(=O)c1cc(F)c(N2CC(CC#N)(n3cc(-c4c[nH]nc4CO)cn3)C2)cc1F)C(F)(F)F [Example 12, 4-{3-(Cyanomethyl)-3-[3′-(hydroxymethyl)-1H,1′H-4,4′-bipyrazol-1-yl]azetidin-1-yl}-2,5-difluoro-N-[(1S)-2,2,2-trifluoro-1-methylethyl]benzamide trifluoroacetate] |  | 300 to 1000 nM | > 1000 nM
